In patent publication US10315990B2, “Isothiocyanate compounds and isothiocyanate XPO1 protein inhibitor drugs thereof” (DRIVINGFORCE THERAPEUTICS Co., Ltd., priority 2015, dated 2019):

Tests used:
IL-6 = assay: Serum IL-6 level of IBD animal model (ELISA); assay type: in vivo, SD rats; details: 80 mg/kg, three days after making the TNBS model
Description: (§1) Inflammatory bowel disease is an autoimmune disease. […] The therapeutic effect of the representative compound for the immune system disease or inflammation can be assessed by detecting change in levels of some important cytokines such as TNF-α and IL-6 at downstream of the signal path.

IBD animal model = assay: Macroscopic pathological changes of IBD animal model (enteroclysis with TNBS); assay type: in vivo, SD rats; details: TNBS rats; for Macroscopic pathological score: 80 mg/kg intragastrically daily, score 0-5, 10 animals
Experimental: Eight-week-old male SD rats (10 rats per group) were fasted for 24 hours and anaesthetized with diethyl ether. 50% ethanol and TNBS (2,4,6-trinitrobenzenesulfonic acid) were mixed to prepare a solution. In the IBD model group, a tube made of vinyl resin was inserted 5 cm from anus, and enteroclysis was performed with the TNBS solution in a dose of 100 mg/kg. The rats were hung upside down 30 seconds later after the enteroclysis to ensure no leakage of the TNBS solution. In the control group, the TNBS solution was replaced with normal saline with which enteroclysis was performed. Seven days later after the enteroclysis with the TNBS solution or normal saline, animals were sacrificed and dissected. […] Two weeks later after treated with the drugs, the animals were sacrificed and dissected, and large intestine thereof was taken out and fixed in 4% formalin solution for 30 minutes. The large intestine of the animals was cut lengthwise from the mesentery side to take photos for rectum portion and measure the weight of rectum. Based on the macroscopic observation and judgment score (Table 2-1), ulceration and bleeding states of rectum portion were scored according to the macroscopic observation scoring standard.

TNF-α = assay: Serum TNF-α level of IBD animal model (ELISA); assay type: in vivo, SD rats; details: 80 mg/kg, three days after making the TNBS model
Description: as §1

HMLE-Snail cell line = assay: Formation of HMLE-Snail cell line spheroids; assay type: cell-based; details: 10 μg/ml, treated for 24 hours; control = 100; read-out: Colony (%): cell colony number of drug-treated group/cell colony number of control group × 100%
Experimental: HMLE-Snail cell line is one of most classic cell models for studying tumor cell metastasis and EMT path. HMLE-Snail cell line highly expresses Snail protein, and thus one of most remarkable features thereof is that it has spherical cellular morphology (spheroid). […] The HMLE-Snail cell line used in the present invention was donated by Dr. Robert Weinberg from America Massachusetts Whitehead Institute. HMLE-Snail cells were suspended in a liquid culture medium (in which B-27 and N-2 were added, purchased from America Invitrogen Corporation) containing DMEM/F12 in a ratio of 1:1, in an amount of 1.0×10^3 cells/ml, and cultured in an ultra low attachment culture plate so as to allow spheroids to be formed. Seven days later, spheroids were collected by centrifugation, and counted. […] Docetaxel is a common clinical chemotherapy drug.

XPO1 protein = biological target: T1, XPO1 protein (Homo sapiens, UniProt O14980); assay: Inhibitory activity for XPO1 protein (NES-GFP nuclear export, laser confocal microscope); assay type: cell-based; details: NES-GFP nuclear export, cells treated for 2 hours
T1 construct: Sixteen hours later, NES-GFP plasmid was transfected with liposome; endogenous in cells
T1 sequence (O14980 whole entry, species assumed): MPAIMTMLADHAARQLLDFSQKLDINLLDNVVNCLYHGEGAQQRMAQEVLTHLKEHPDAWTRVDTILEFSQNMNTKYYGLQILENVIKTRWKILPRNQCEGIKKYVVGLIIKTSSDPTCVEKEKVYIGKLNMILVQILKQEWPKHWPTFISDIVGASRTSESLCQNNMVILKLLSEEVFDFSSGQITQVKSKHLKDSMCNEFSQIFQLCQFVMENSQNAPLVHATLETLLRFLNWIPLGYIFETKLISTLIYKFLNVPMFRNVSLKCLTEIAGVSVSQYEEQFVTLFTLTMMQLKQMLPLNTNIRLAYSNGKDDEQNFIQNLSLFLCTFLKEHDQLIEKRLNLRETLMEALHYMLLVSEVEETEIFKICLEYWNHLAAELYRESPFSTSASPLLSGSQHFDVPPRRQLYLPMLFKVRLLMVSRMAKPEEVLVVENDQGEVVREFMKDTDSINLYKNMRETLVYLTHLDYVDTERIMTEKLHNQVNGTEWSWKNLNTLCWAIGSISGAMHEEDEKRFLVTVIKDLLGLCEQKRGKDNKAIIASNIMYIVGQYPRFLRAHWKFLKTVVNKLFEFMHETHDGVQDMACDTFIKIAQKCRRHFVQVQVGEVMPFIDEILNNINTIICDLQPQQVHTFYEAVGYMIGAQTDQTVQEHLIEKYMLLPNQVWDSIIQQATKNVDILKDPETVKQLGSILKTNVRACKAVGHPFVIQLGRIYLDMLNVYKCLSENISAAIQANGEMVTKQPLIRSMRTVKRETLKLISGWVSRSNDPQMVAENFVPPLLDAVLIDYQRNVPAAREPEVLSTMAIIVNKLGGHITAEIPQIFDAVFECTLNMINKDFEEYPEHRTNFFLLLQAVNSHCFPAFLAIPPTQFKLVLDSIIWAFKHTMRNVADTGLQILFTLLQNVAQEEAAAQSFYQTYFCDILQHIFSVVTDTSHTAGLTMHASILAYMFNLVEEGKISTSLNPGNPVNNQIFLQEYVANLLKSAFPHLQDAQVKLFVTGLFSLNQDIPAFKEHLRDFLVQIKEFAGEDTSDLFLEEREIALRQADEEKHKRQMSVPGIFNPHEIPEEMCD
Description: NES (nuclear export signal) is a nuclear export signal peptide recognized by XPO1 protein. XPO1 recognizes NES sequence peptide segment of biomacromolecule and exports the biomacromolecule out of nucleus. NES-GFP protein is obtained by co-expressing green fluorescence protein GFP and NES sequence peptide segment by using a eukaryotic expression plasmid. Inhibitory activity of the representative compound for XPO1 protein can be assessed by detecting influence of the compound on NES-GFP cell localization.
The cells were digested with trypsin, counted, and inoculated on 96-well plate in an amount of 1.5×10^4 cells per well. Sixteen hours later, NES-GFP plasmid was transfected with liposome.

NCI-H1975 = assay: cells; assay type: cell-based; details: Homo sapiens; NCI-H1975, 72 hours; read-out: IC50
Experimental: (§2) NCI-H1975 and NCI-H1650 are two typical high metastasis type lung cancer cell lines. The therapeutic effect of the representative compound for the metastasis type lung cancers can be preliminarily assessed by detecting the inhibitory activity of the representative compound for the two cell lines. The lung cancer cell line was inoculated on 96-well cell culture plate in an amount of 6000 cells per well and cultured at 37° C. for 24 hours, and then treated solely with the compound added therein and cultured. Seventy-two hours later, MTT or CCK-8 method was used to detect the inhibitory activity of the compound for the two lung cancer cell lines.

NCI-H1650 = assay: cells; assay type: cell-based; details: Homo sapiens; NCI-H1650, 72 hours; read-out: IC50
Experimental: as §2

[1] = tested on: SK-OV3 (high metastasis type ovarian cancer cell line); assay: Ovarian cancer intraperitoneal metastasis animal model; assay type: in vivo, nudemice (BALB/c-nu/nu); details: Mus musculus, SK-OV-3, ip; for response vs control in vivo at 80 mg/kg: 80 mg/kg intraperitoneal injection once a day for 3 weeks; for mortality at 80 mg/kg: six mice per group, read-out: Mortality (within 30 days) (converted)
Experimental: The ovarian cancer intraperitoneal metastasis animal model is one of most classic animal models for studying anti-ovarian cancer metastasis drug. Sixty 5 to 6-week-old female nudemice with similar weight (BALB/c-nu/nu) were chosen. SK-OV3 (high metastasis type ovarian cancer cell line) stably expressing green fluorescence protein was screened, and prepared into a cell suspension of 2×10^6 cells/100 μl with serum-free PRMI1640 medium. […] Three weeks later, the cancer was detected with a small animal in vivo imaging apparatus (Xenogen, School of Medicine, Shanghai Jiaotong University) and photos thereof were taken. […] In the table, T represents the drug-treated group, and C represents the blank control group. T/C is (V/V0 of compound-treated group)/(V/V0 of blank control group) in which V represents the cancer volume of mouse on the day the detection was performed, and V0 represents the cancer volume of mouse on the day the administration begun.

HCT116 = assay: Inhibitory activity for high metastasis type colon cancer cell line (MTT or CCK-8); assay type: cell-based; details: Homo sapiens, HCT-116; HCT116, 72 hours; read-out: IC50
Experimental: (§3) SW620 and HCT116 are two typical high metastasis type colon cancer cell lines. The colon cancer cell line was inoculated on 96-well cell culture plate in an amount of 6000 cells per well and cultured at 37° C. for 24 hours, and then treated solely with the compound added therein and cultured. Seventy-two hours later, MTT or CCK-8 method was used to detect the inhibitory activity of the compound for the two high metastasis type colon cancer cell lines.

SW620 = assay: as above; assay type: cell-based; details: Homo sapiens, SW-620; SW620, 72 hours; read-out: IC50
Experimental: as §3

Compound	activity at 10 µg/mL (HMLE-Snail cell line) [%]	Activity (μM): inhibitory activity for XPO1 protein (full inhibitory concentration) (XPO1 protein) [µM]	also measured
Nc1ccc(O)c(C(=O)O)c1 [Compound 5-ASA, 5-aminosalicylic acid, reference compound]	–	–	Serum IL-6 level, Animal-1 (IL-6): 2.7 ng/mL; Serum IL-6 level, Animal-2 (IL-6): 2.2 ng/mL; Serum IL-6 level, Animal-3 (IL-6): 2.3 ng/mL; Macroscopic pathological score (IBD animal model): 4.0 ± 0.2; colon tissue bleeding and ulceration phenomena (in words) (IBD animal model; 80 mg/kg): small relief extent; Serum TNF-α level, Animal-1 (TNF-α): 1.7 ng/mL; Serum TNF-α level, Animal-2 (TNF-α): 1.8 ng/mL; Serum TNF-α level, Animal-3 (TNF-α): 2.0 ng/mL
CC(C)C[S+]([O-])/C=C/CCN=C=S (stereo not drawn) [Compound F-04, reference compound]	60 to 65	10 to 15	–
[O-][S+](/C=C/CCN=C=S)c1ccc(Br)cc1 (stereo not drawn) [Compound I-02]	30 to 35	1 to 5	Macroscopic pathological score (IBD animal model): 2.0 ± 0.4
COc1cc([S+]([O-])/C=C/CCN=C=S)cc(C(F)(F)F)c1 (stereo not drawn) [Compound I-05]	20 to 25	0.5 to 1	–
NS(=O)(=O)c1cc([S+]([O-])/C=C/CCN=C=S)cc(C(F)(F)F)c1 (stereo not drawn) [Compound I-07]	20 to 25	0.5 to 1	–
N#Cc1cc([S+]([O-])/C=C/CCN=C=S)cc(C(F)(F)F)c1 (stereo not drawn) [Compound I-08]	15 to 20	0.5 to 1	Serum IL-6 level, Animal-1 (IL-6): 0.8 ng/mL; Serum IL-6 level, Animal-2 (IL-6): 0.7 ng/mL; Serum IL-6 level, Animal-3 (IL-6): 0.8 ng/mL; IC50 (NCI-H1975): 170 nM; IC50 (NCI-H1650): 200 nM; response vs control in vivo at 80 mg/kg ([1]; 504 h, read-out: T/C (%)): 23%; mortality at 80 mg/kg ([1]; 720 h): 0%; Serum TNF-α level, Animal-1 (TNF-α): 1.0 ng/mL; Serum TNF-α level, Animal-2 (TNF-α): 1.2 ng/mL; Serum TNF-α level, Animal-3 (TNF-α): 1.1 ng/mL
[O-][S+](/C=C/CCN=C=S)c1ccc(N2CCOCC2)cc1 (stereo not drawn) [Compound I-09]	25 to 30	1 to 5	–
[O-][S+](/C=C/CCN=C=S)c1ccc2c(c1)CCCC2 (stereo not drawn) [Compound I-10]	30 to 35	1 to 5	–
[O-][S+](/C=C/CCN=C=S)c1ccc2cc3ccccc3cc2c1 (stereo not drawn) [Compound I-12]	30 to 35	1 to 5	–
[O-][S+](/C=C/CCN=C=S)c1ccc2cccc3c2c1CC=C3 (stereo not drawn) [Compound I-13]	30 to 35	1 to 5	–
[O-][S+](/C=C/CCN=C=S)c1ccc2c(c1)Cc1ccccc1-2 (stereo not drawn) [Compound I-14]	25 to 30	1 to 5	–
[O-][S+](/C=C/CCN=C=S)c1cccnc1 (stereo not drawn) [Compound I-15]	35 to 40	1 to 5	–
[O-][S+](/C=C/CCN=C=S)c1cncc(C(F)(F)F)c1 (stereo not drawn) [Compound I-16]	35 to 40	0.5 to 1	–
[O-][S+](/C=C/CCN=C=S)c1ccc2ncccc2c1 (stereo not drawn) [Compound I-17]	30 to 35	0.5 to 1	response vs control in vivo at 80 mg/kg ([1]; 504 h, read-out: T/C (%)): 27%; mortality at 80 mg/kg ([1]; 720 h): 0%
[O-][S+](/C=C/CCN=C=S)c1ccc2ncncc2c1 (stereo not drawn) [Compound I-18]	30 to 35	1 to 5	–
O=c1ccc2cc([S+]([O-])/C=C/CCN=C=S)ccc2o1 (stereo not drawn) [Compound I-19]	25 to 30	1 to 5	–
[O-][S+](/C=C/CCN=C=S)c1nc2ccccc2s1 (stereo not drawn) [Compound I-20]	30 to 35	1 to 5	Serum IL-6 level, Animal-1 (IL-6): 1.0 ng/mL; Serum IL-6 level, Animal-2 (IL-6): 1.1 ng/mL; Serum IL-6 level, Animal-3 (IL-6): 1.0 ng/mL; Macroscopic pathological score (IBD animal model): 2.0 ± 0.3; Serum TNF-α level, Animal-1 (TNF-α): 1.3 ng/mL; Serum TNF-α level, Animal-2 (TNF-α): 1.2 ng/mL; Serum TNF-α level, Animal-3 (TNF-α): 1.1 ng/mL
[O-][S+](/C=C/CCN=C=S)c1nc2cc(C(F)(F)F)ccc2s1 (stereo not drawn) [Compound I-21]	30 to 35	1 to 5	–
[O-][S+](/C=C/CCN=C=S)c1nc2ccccc2[nH]1 (stereo not drawn) [Compound I-22]	30 to 35	1 to 5	–
[O-][S+](/C=C/CCN=C=S)c1nc2ccc(C(F)(F)F)cc2[nH]1 (stereo not drawn) [Compound I-23]	30 to 35	1 to 5	–
COc1ccc2nc([S+]([O-])/C=C/CCN=C=S)[nH]c2c1 (stereo not drawn) [Compound I-24]	20 to 25	1 to 5	–
[O-][S+](/C=C/CCN=C=S)c1ccc(-c2ccccc2)cc1 (stereo not drawn) [Compound I-26]	20 to 25	0.5 to 1	–
COc1ccc(Sc2ccc([S+]([O-])/C=C/CCN=C=S)cc2)cc1 (stereo not drawn) [Compound I-28]	15 to 20	0.5 to 1	IC50 (HCT116): 150 nM; IC50 (SW620): 190 nM
CC(=O)O[C@@]12CO[C@@H]1C[C@H](O)[C@@]1(C)C(=O)[C@H](O)C3=C(C)[C@@H](OC(=O)[C@H](O)[C@@H](NC(=O)OC(C)(C)C)c4ccccc4)C[C@@](O)([C@@H](OC(=O)c4ccccc4)[C@H]21)C3(C)C [Docetaxel, docetaxel]	81	–	response vs control in vivo at 20 mg/kg ([1]; 504 h, 20 mg/kg intraperitoneal injection once a day for 3 weeks, read-out: T/C (%)): 77%; mortality at 20 mg/kg ([1]; 720 h, read-out: Mortality (within 30 days)): 0%
C[S+]([O-])/C=C/CCN=C=S (stereo not drawn) [SFE, sulforaphene, reference compound]	–	10 to 15	–
